In PMC10037499, “High-Throughput Screen Reveals the Structure–Activity Relationship of the Antimicrobial Lasso Peptide Ubonodin” (ACS Central Science, 2023):
Where a SMILES comes first, the peptide text is derived from it.

What was measured:
B. cenocepacia AU0756 = system: B. cenocepacia AU0756
Experimental: We proceeded to test the antimicrobial activity of the selected variants against two clinical isolates of the Bcc, B. cenocepacia AU0756 and B. cenocepacia AU24362, in broth microdilution assays. […] We revisited these measurements using broth microdilution assays following the Clinical & Laboratory Standards Institute (CLSI) standard.
Broth microdilution assays of the ubonodin variants were conducted using B. cenocepacia AU0756 and B. cenocepacia AU24362 with guidelines provided by the Clinical & Laboratory Standards Institute (CLSI).

[1] = system: RNA polymerase (RNAP) in E. coli MC1061; test: High-throughput growth-based screen with NGS (enrichment value) for RNA polymerase inhibition; assay type: cell-based; parameters: key to Experimental observation (enrichment observed in the screen): Dropout: Many variants inhibit RNAP so strongly that they cannot be detected by NGS after IPTG induction (referred to as dropout variants); conditions: for Experimental observation (enrichment observed in the screen): Table S4, variants whose MICs were tested; for Enrichment: case.csv of the DeepLasso code, screen stage and IPTG concentration not stated
Experimental: The single mutant library was analyzed by NGS at multiple stages of sample preparation (Figure 2A) to track its evolution throughout the screen. Specifically, the frequency of each possible aa variant was computed at each stage by summing up counts for each distinct translated sequence and dividing by the total number of counts for all variants (eq S1, SI Methods). Since cells expressing an RNAP-inhibiting ubonodin variant will have growth defects relative to cells with a nontoxic variant, RNAP-inhibiting ubonodin variants are expected to decrease in frequency throughout the screen.
First, the naïve library (digested PCR products) was sequenced. These digested PCR products were cloned into the pUboABC backbone and transformed into a recA^– cloning strain. This plasmid library was sequenced again to capture any changes upon transformation of the library into E. coli. The change between the naïve library and the cloning transformation library was minimal (Figure S6A). This plasmid library was transformed into the screening strain MC1061, and the plasmid from resulting colonies was also sequenced. The library in MC1061 was grown up en masse in liquid culture to mid log phase, and a portion of the culture was plated. These colonies were scraped, then the plasmid was isolated and sequenced. Finally, the liquid culture was induced with IPTG, after which a portion of the culture was plated and the plasmid was isolated and sequenced. It is key to note that all samples from liquid cultures were plated prior to sequencing to ensure that only viable cells were sequenced. […] The rationale for sequencing at these five different stages was the possibility that leaky expression of uboA would affect the frequency of active mutants prior to IPTG induction. Indeed, we observed that the frequency of some uboA mutants dropped as soon as they were transformed into the screening strain MC1061 while the frequency of other mutants climbed (Figure 2B).
The behavior of the point variants (i.e., variants with a single aa substitution) was examined by calculating their enrichment values, the base-2 logarithm of the ratio of the variant’s frequency at a specific step of the screen to the variant’s frequency in the cloning transformation library (eq S3, Figure S6). The most relevant enrichment value for ubonodin activity is the comparison between the post-IPTG library and the cloning transformation library (Figure 2A). […] Many variants inhibit RNAP so strongly that they cannot be detected by NGS after IPTG induction (referred to as dropout variants). […] Variants with a stop codon mutation and variants containing an aa substitution at Tyr9 or Tyr27 (positions conserved in MccJ25 and shown to be crucial for RNAP inhibition, see Figure S7)[26] have positive enrichment values (1.2–1.7), serving as quality control for the screen (Figure 3A). Strikingly, 63% of point variants decreased in frequency, indicating a high tolerance to aa substitution. […] The positions with active variants are Asn11 through Ser24 in the loop and Asp3, Ser5, and Ala7 in the ring.
The single mutant and double mutant libraries were transformed into E. coli MC1061. Colonies were resuspended in media and subcultured into a larger culture. Aliquots of the cultures were sampled prior to and after induction with 10 μM IPTG and 100 μM IPTG and plated. After 16 h of incubation, the colonies were resuspended in media and plasmids were miniprepped.
Samples were PCR amplified with barcoded primers and combined such that double mutant library samples were over-represented compared to single mutant library samples to provide sufficient coverage of the larger double mutant library. Samples were sequenced using an Illumina MiSeq Micro 300nt and an Illumina NovaSeq 6000 Sequencing System. Downstream analysis of the data was conducted with Python, MATLAB, and R.
V to reduce genomic DNA contamination. One fragment was amplified with Xho I For Lib and a […]

E. coli MC1061 = test: Spot dilution assay of E. coli producing the ubonodin variant from pUboABC; assay type: cell-based; conditions: biological duplicates; for Inhibits Growth: variant in pUboABC backbone in E. coli MC1061, induction with 100 μM IPTG, ten-fold serial dilutions
Experimental: Cultures of E. coli MC1061 transformed with the appropriate plasmids were grown. Aliquots of the cultures were sampled prior to and after induction with 100 μM IPTG, and 10-fold serial dilutions were plated. […]
All cloning was conducted by PCR amplification (using Q5 polymerase), restriction digestion, ligation, (using T4 DNA ligase), and transformation into chemically competent E. coli XL1-Blue. All cloning with a pUboABC backbone was done by plating transformation mixt ures onto Lysogeny Broth (LB) plates supplemented with 100 μg/mL ampicillin and 0.2% w/v glucose, and colonies were inoculated into LB media supplemented with 100 μ g/mL ampicillin and 0.2% w/v glucose to suppress any leaky expression. Cloning for all other plasmid constructs was done by plating transformation mixtures onto Lysogeny Broth (LB) plates supplemented with 100 μ g/ m L ampicillin, and colonies were inoculated into LB media supplemented with 100 μ g/ m L ampicillin.
Plasmids were extracted using Qiagen QIAprep Spin Miniprep Kit and sequence verified using Sanger sequencing. All primer sequences are listed in Table S7, and all plasmid constructs are […]
pUboABC was cloned by amplifying pWC99 with pQE-80 NheI For and pAT8 Nco I Rev.
The amplicon was ligated into pWC99 digested with Nhe I and Nco I. pUboBC was cloned by digesting pUboABC with Nh e I and Nco I and ligating that fragment into pQE-80 digested with Nhe I and Nco I. pUboABC S5H I16P and pUboABCD S5H I16P were cloned with overlap PCR using pWC99 as the template. One fragment was amplified with pQE-80 EcoRI For and S5H I16P Rev v2 and the second fragment was amplified with S5H I16P For v2 and pQE-80 HindII I Rev. […]
All remaining plasmid constructs were cloned with overlap PCR. One fragment was amplified with Xho I For Lib and a mutagenic reverse primer and the second fragment was amplified with NheI Rev Lib and a mutagenic forward primer. The templates and mutagenic […]
The fragments were joined with a second round of PCR and amplified with XhoI For Lib and NheI Rev Lib. Amplicons were ligated into the appropriate plasmid backbone digested with Xho I and Nhe I-HF. The plasmid backbones […]
The appropriate plasmid was transformed into electrocompetent E. coli MC1061, plated onto LB plates supplemented with 100 μ g/ m L ampicillin and 0.2% w/v glucose, and incubated at 30 °C for 16 hours. Colonies were inoculated into LB media supplemented with 100 μ g/ m L ampicillin and 0.2% w/v glucose and grown at 37 °C for 16 hours. These cultures were sub-cultured to an OD600 of 0.02 in 50 mL of LB media supplemented with 100 μg/mL ampicillin in a 250 mL flask. Once the OD600 reached 0.3, a 1 mL aliquot was sampled immediately prior to inducing the cultures with 100 μM isopropyl β-D-1-thiogalactopyranoside (IPTG). The aliquot was washed with Phosphate-Buffered Saline (PBS) two times and ten-fold serial dilutions were spotted onto LB plates supplemented with 100 μ g/ m L ampicillin and 0.2% w/v glucose. For each following timepoint, a 1 mL sample of each culture was withdrawn, washed with PBS two times, and ten- […]
fold serial dilutions were spotted onto LB plates supplemented with 100 μ g/m L ampicillin and 0.2% w/v glucose. Plates were incubated for 16 hours at 37 °C before imaging. […]
250 mL flask. Ten-fold serial dilutions of the culture were plated onto LB plates supplemented with 100 μ g/ m L ampicillin and 0.2% w/v glucose. The cultures were then grown at 37 °C, and once the OD600 reached 0.3, a 1 mL sample of the culture was withdrawn immediately before the cultures were induced with 10 μM or 100 μM IPTG and returned to grow longer. […]
All plates were incubated at 37 °C for 16 hours, after which the number of colonies was counted. Three biological replicates of this assay were done.
Co-Culture of E. coli MC1061 pUboABC and E. coli MC1061 pUboBC pUboABC (0.9 ng) and pUboBC (0.1 ng) were transformed into electrocompetent E. coli MC1061 with a one- hour outgrowth at 37 °C in LB media supplemented with 0.2% w/v glucose. […]

Molecule	B. cenocepacia AU0756 MIC (B. cenocepacia AU0756) [µM]	Experimental observation (enrichment observed in the screen) [1]	Time after induction at which the toxic effect was observed (E. coli MC1061; pUboABC backbone) [h]	Inhibits Growth (E. coli MC1061)	Enrichment [1]
CC[C@H](C)[C@@H]1NC(=O)[C@H](CO)NC(=O)CNC(=O)[C@H](CC(=O)O)NC(=O)CNC(=O)CNC(=O)CC[C@@H](C(=O)N[C@@H](Cc2ccc(O)cc2)C(=O)N[C@@H](Cc2ccccc2)C(=O)N[C@@H](CCSC)C(=O)N[C@@H](CCCNC(=N)N)C(=O)N2CCC[C@H]2C(=O)N[C@@H](CCSC)C(=O)N[C@@H](Cc2c[nH]cn2)C(=O)N[C@H](C(=O)N[C@@H](Cc2c[nH]cn2)C(=O)N[C@@H](CC(=O)O)C(=O)N[C@@H](Cc2c[nH]c3ccccc23)C(=O)N[C@@H](CCC(N)=O)C(=O)N[C@H](C(=O)N[C@@H](CCSC)C(=O)N[C@@H](CC(=O)O)C(=O)N[C@@H](CO)C(=O)NCC(=O)N[C@@H](Cc2ccc(O)cc2)C(=O)N[C@@H](Cc2ccc(O)cc2)C(=O)NCC(=O)O)[C@@H](C)CC)[C@@H](C)CC)NC(=O)CNC1=O [A7G N11M] (HELM PEPTIDE1{G.G.D.G.S.I.G.E.Y.F.M.R.P.M.H.I.H.D.W.Q.I.M.D.S.G.Y.Y.G}$PEPTIDE1,PEPTIDE1,1:R1-8:R3$$$V2.0)	>8	Dropout	6	Yes	–
CC[C@H](C)[C@H](NC(=O)[C@H](CCC(N)=O)NC(=O)[C@H](Cc1c[nH]c2ccccc12)NC(=O)[C@H](CC(=O)O)NC(=O)[C@H](Cc1c[nH]cn1)NC(=O)[C@H](C)NC(=O)[C@H](Cc1c[nH]cn1)NC(=O)[C@H](CCSC)NC(=O)[C@@H]1CCCN1C(=O)[C@H](CCCNC(=N)N)NC(=O)[C@H](CC(N)=O)NC(=O)[C@H](Cc1ccccc1)NC(=O)[C@H](Cc1ccc(O)cc1)NC(=O)[C@@H]1CCC(=O)NCC(=O)NCC(=O)N[C@@H](CC(=O)O)C(=O)NCC(=O)N[C@@H](CO)C(=O)N[C@@H]([C@@H](C)CC)C(=O)N2CCC[C@H]2C(=O)N1)C(=O)N[C@@H](CCSC)C(=O)N[C@@H](CC(=O)O)C(=O)N[C@@H](CO)C(=O)NCC(=O)N[C@@H](Cc1ccc(O)cc1)C(=O)N[C@@H](Cc1ccc(O)cc1)C(=O)NCC(=O)O [A7P I16A] (HELM PEPTIDE1{G.G.D.G.S.I.P.E.Y.F.N.R.P.M.H.A.H.D.W.Q.I.M.D.S.G.Y.Y.G}$PEPTIDE1,PEPTIDE1,1:R1-8:R3$$$V2.0)	4 to 8	Dropout	–	Yes	–
CC[C@H](C)[C@H](NC(=O)[C@H](CCC(N)=O)NC(=O)[C@H](Cc1c[nH]c2ccccc12)NC(=O)[C@H](CC(=O)O)NC(=O)[C@H](Cc1c[nH]cn1)NC(=O)[C@@H](NC(=O)[C@H](Cc1c[nH]cn1)NC(=O)[C@H](CCSC)NC(=O)[C@@H]1CCCN1C(=O)[C@H](CCCNC(=N)N)NC(=O)[C@H](CC(N)=O)NC(=O)[C@H](Cc1ccccc1)NC(=O)[C@H](Cc1ccc(O)cc1)NC(=O)[C@@H]1CCC(=O)NCC(=O)NCC(=O)N[C@@H](CC(=O)O)C(=O)NCC(=O)N[C@@H](CO)C(=O)N[C@@H]([C@@H](C)CC)C(=O)N2CCC[C@H]2C(=O)N1)[C@@H](C)CC)C(=O)N[C@@H](CCSC)C(=O)N[C@@H](CC(=O)O)C(=O)N[C@@H](CO)C(=O)NCC(=O)N[C@@H](Cc1ccc(O)cc1)C(=O)N[C@@H](Cc1ccc(O)cc1)C(=O)NCC(=O)O [A7P] (HELM PEPTIDE1{G.G.D.G.S.I.P.E.Y.F.N.R.P.M.H.I.H.D.W.Q.I.M.D.S.G.Y.Y.G}$PEPTIDE1,PEPTIDE1,1:R1-8:R3$$$V2.0; C-terminus assumed)	2	-3.4	–	Yes	–
GGDGSI*EYFNRPMVIHDWQIMDSGMYG	–	–	–	–	4.338
GGDGSIAEYFNRPMHIHEWQIM*SGYYG	–	–	–	–	4.458
